Experimental data taken from US6680308B1, “Use of organophosphorus compounds for the therapeutic and prophylactic treatment of infections” (priority 1998, dated 2004).

How the values were obtained:
Plasmodium vinckeii [1] = assay: Protection from malaria in infected mice, pretreatment one day before infection; assay type: in vivo, mice (BALB/c-strain)
Procedure: The efficacy of compounds in vivo against malaria was tested using male mice weighing 20 to 25 g (BALB/c-strain). Four mice were treated intraperitoneally with 50 mg/kg 3-(N-formyl-N-hydroxylamino)-propylphosphonic acid monosodium salt one day before infection. The mice were then infected with Plasmodium vinckeii. Mice which were not pretreated with the substance served as a control group.

Plasmodium vinckeii [2] = assay: Efficacy against malaria in vivo, modified Peters' test, treatment of infected mice
Procedure: The various derivatives were tested by the modified Peters' test. The substances were applied here in a quarter of the median lethal dose (LD50). In the test batch ten mice were infected with Plasmodium vinckeii, the pathogen of mouse malaria. After confirmation of the infection by blood testing four mice were treated. Six mice, which were not treated, served as a control group. […] The control mice had to be killed on day 5 after infection with parasitaemia of >80%.

[3] = tested on: Plasmodium falciparum Dd2 (Indo-China); assay: In vitro cytotoxicity against malaria parasites, [3H]-hypoxanthine insertion, strain Dd2; assay type: cell-based; conditions: strain Dd2, resistant to cloroquine, quinine, pyrimethamine, cycloguanil and sulfadoxine, 48 hours incubation, then 24 hours [3H]-hypoxanthine, read-out: IC50 value (concentration at which the vitality of parasites is reduced by a half)
Procedure: (§1) On the Principle of IC50 Determination According to Vial et al (the Concentration at Which the Vitality of Parasites is Reduced by a Half)
(§2) To determine the IC50 value according to Vial et al malaria parasites are initially cultivated for a complete 48 hour cycle in the presence of inhibitors, in the subsequent 24 hours the survival rate is measured by [^3H]-hypoxanthine insertion.
(§3) A dilution series of 3-(N-formyl-N-hydroxylamino)-propylphosphonic acid monosodium salt is placed in 20 μl aliquots concentrated by 10 on a microtitre plate. Then 180 μl parasite suspension in culture medium is added to each well. Asynchronous cultures with a parasitaemia of approximately 0.4% and 2% haematocrite are used. The microtitre plates are subsequently incubated for 48 hours. Then 30 μl [^3H]-hypoxanthine are added to each well. After 24 hours of incubation the cells were harvested and the incorporated radioactivity was measured. In FIG. 1 the results with the strains HB3 and Dd2 are shown with known resistances against other malaria pharmaceutical compositions. In both strains there is a IC50 value of approximately 100 μg/l. The resistances of these strains are:
Plasmodium falciparum Dd2 (Indo-China) is resistant to cloroquine, quinine, pyrimethamine, cycloguanil and sulfadoxine.

[4] = tested on: Plasmodium falciparum HB3 (Honduras); assay: In vitro cytotoxicity against malaria parasites, [3H]-hypoxanthine insertion, strain HB3; assay type: cell-based; conditions: strain HB3, resistant to pyrimethamine, 48 hours incubation, then 24 hours [3H]-hypoxanthine, read-out: IC50 value (concentration at which the vitality of parasites is reduced by a half)
Procedure: as §1, §2, §3
Plasmodium falciparum HB3 (Honduras) is resistant to pyrimethamine.

O=CN(O)CCCP(=O)([O-])O.[Na+] [3-(N-formyl-N-hydroxylamino)-propylphosphonic acid monosodium salt]
infection in pretreated mice (Plasmodium vinckeii [1]; 50 mg/kg intraperitoneally one day before infection with Plasmodium vinckeii): No infection could be detected | parasites 8 weeks after infection (Plasmodium vinckeii [1]; 50 mg/kg intraperitoneally one day before infection, 8 weeks after infection): still free of parasites | living parasites after 1 day (Plasmodium vinckeii [2]; 50 mg/kg/d, mice with a parasitaemia of 80%, after 1 day): free of living parasites | parasites 8 weeks after the treatment had stopped (Plasmodium vinckeii [2]; 1,000 mg/kg/d over 3 days, 8 weeks after end of treatment): still free from parasites | effect on parasites in the mice's blood (Plasmodium vinckeii [2]; 1,000 mg/kg/d over 3 days, mice infected with Plasmodium vinckeii): destruction of the parasites | living parasites in treated group after one day (Plasmodium vinckeii [2]; 1,000 mg/kg/d, after just one day): free of living parasites | IC50 [3]: ~0.1 µg/mL | IC50 [4]: ~0.1 µg/mL
